In ChEMBL document CHEMBL1201862, “PubChem BioAssay data set” (2004):
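Where inhibition never reached the appropriate level, the endpoint shown equals the highest concentration tested. Otherwise, values were interpolated linearly from a five-concentration, 48-hour dose response in 96-well plates. GI50 marks 50% less growth.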 The source made the active and inactive calls. Rule as the data show it: active = GI50 up to about 1.1 µM and inactive = higher.

Legend:
Assay in all cases: NCI anticancer screen, dose series, 48 h
[1] = tested on: RPMI-8226
[2] = tested on: CCRF-CEM
[3] = tested on: NCI-H460
[4] = tested on: SNB-75
[5] = tested on: K562
[6] = tested on: HOP-92
[7] = tested on: A549
[8] = tested on: HCC 2998
[9] = tested on: 786-0
[10] = tested on: SK-OV-3
[11] = tested on: CAKI-1
[12] = tested on: A498
[13] = tested on: ACHN
[14] = tested on: SF-295
[15] = tested on: RXF 393
[16] = tested on: TK-10
[17] = tested on: NCI-H522
[18] = tested on: MDA-MB-435
[19] = tested on: DU-145

SMILES	GI50 [1]	GI50 [2]	GI50 [3]	GI50 [4]	GI50 [5]	GI50 [6]	GI50 [7]	GI50 [8]	GI50 [9]	GI50 [10]	GI50 [11]	GI50 [12]	GI50 [13]	GI50 [14]	GI50 [15]	GI50 [16]	GI50 [17]	GI50 [18]	GI50 [19]
N#CCCC[Si]12OCCN(CCO1)CCO2	> 100 µM (inactive)	> 100 µM (inactive)	> 100 µM (inactive)	> 100 µM (inactive)	> 100 µM (inactive)	> 100 µM (inactive)	> 100 µM (inactive)	> 100 µM (inactive)	> 100 µM (inactive)	> 100 µM (inactive)	> 100 µM (inactive)	> 100 µM (inactive)	> 100 µM (inactive)	> 100 µM (inactive)	> 100 µM (inactive)	> 100 µM (inactive)	> 100 µM (inactive)		
CC(=O)OCC1OC(OCc2ccccc2)C(Br)C(OC(C)=O)C1OC(C)=O (centres undefined)	> 100 µM (inactive)	> 100 µM (inactive)	> 100 µM (inactive)		> 100 µM (inactive)	> 100 µM (inactive)	> 100 µM (inactive)	> 100 µM (inactive)	> 100 µM (inactive)		> 100 µM (inactive)	> 100 µM (inactive)	> 100 µM (inactive)	> 100 µM (inactive)	> 100 µM (inactive)	> 100 µM (inactive)	> 100 µM (inactive)		
COc1ccc(S(=O)(=O)N/N=C\c2cc([N+](=O)[O-])cc(I)c2O)c(OC)c1OC	26.5 µM (inactive)	24.3 µM (inactive)	33 µM (inactive)	24.7 µM (inactive)	31.6 µM (inactive)	13.5 µM (inactive)	59 µM (inactive)	31.4 µM (inactive)	24.7 µM (inactive)	25 µM (inactive)	30.1 µM (inactive)	29.8 µM (inactive)	29.9 µM (inactive)	30.6 µM (inactive)	20.8 µM (inactive)	40.4 µM (inactive)			
O=C(Nc1ccc(Cl)cc1Cl)C(=O)C(C(=O)c1ccc2ccccc2c1)C1OC(=O)c2ccccc21 (centres undefined)	4.06 µM (inactive)		4.33 µM (inactive)			3.3 µM (inactive)	8.32 µM (inactive)		5.97 µM (inactive)	26.8 µM (inactive)	13.5 µM (inactive)	6.7 µM (inactive)	15.8 µM (inactive)	4.02 µM (inactive)	2.16 µM (inactive)		> 10 µM (inactive)		
COC(=O)C(C)(C)/N=C/N(C)C		72.6 µM (inactive)	> 100 µM (inactive)	> 100 µM (inactive)	> 100 µM (inactive)	> 100 µM (inactive)	> 100 µM (inactive)	> 100 µM (inactive)	> 100 µM (inactive)	> 100 µM (inactive)	> 100 µM (inactive)	> 100 µM (inactive)	> 100 µM (inactive)	> 100 µM (inactive)	86.5 µM (inactive)	> 100 µM (inactive)	> 100 µM (inactive)		
Clc1ccccc1C(n1cc(Br)cn1)n1cc(Br)cn1	13.6 µM (inactive)	20.9 µM (inactive)	14.7 µM (inactive)	5.81 µM (inactive)	19.1 µM (inactive)	7.48 µM (inactive)		> 10 µM (inactive)	> 10 µM (inactive)	> 10 µM (inactive)	19 µM (inactive)	17.1 µM (inactive)	16.5 µM (inactive)	16.2 µM (inactive)	16.7 µM (inactive)	23.6 µM (inactive)	71.9 µM (inactive)		
O=C1Cc2ccccc2CCc2ccsc21	> 100 µM (inactive)	> 100 µM (inactive)	> 100 µM (inactive)	61.2 µM (inactive)	> 100 µM (inactive)	40 µM (inactive)	> 100 µM (inactive)	> 100 µM (inactive)	> 100 µM (inactive)	> 100 µM (inactive)	> 100 µM (inactive)	> 100 µM (inactive)		> 100 µM (inactive)	> 100 µM (inactive)	> 100 µM (inactive)	> 100 µM (inactive)		
COC1CC(C)C(OC)C2=CC(=O)C=C(NC(=O)/C(C)=C/C=C\C(C)C(OC(N)=O)/C(C)=C\C(C)C1OC)C2=O (centres undefined)	0.313 µM (active)	0.117 µM (active)	0.422 µM (active)	0.762 µM (active)	0.114 µM (active)	0.313 µM (active)	2.9 µM (inactive)	0.665 µM (active)	0.902 µM (active)	0.357 µM (active)	2.52 µM (inactive)	11.7 µM (inactive)	1.25 µM (inactive)	1.07 µM (active)	0.337 µM (active)	2.09 µM (inactive)	0.0908 µM (active)	0.0721 µM (active)	0.643 µM (active)
CCN(CC)CCOC(=O)/C(=C/c1ccc(OC)cc1)c1cc(OC)c(OC)c(OC)c1	16 µM (inactive)	18.8 µM (inactive)	9.66 µM (inactive)	0.91 µM (active)	3.29 µM (inactive)	3.27 µM (inactive)	5.56 µM (inactive)		7.64 µM (inactive)		4.42 µM (inactive)	2.48 µM (inactive)	7.67 µM (inactive)	1.83 µM (inactive)	2.15 µM (inactive)	20.3 µM (inactive)	2.75 µM (inactive)		
c1ccc(C2(c3cc4ccccc4[nH]3)OCCO2)nc1		> 100 µM (inactive)	> 100 µM (inactive)	> 100 µM (inactive)		> 100 µM (inactive)	> 100 µM (inactive)	> 100 µM (inactive)	> 100 µM (inactive)	> 100 µM (inactive)	> 100 µM (inactive)	> 100 µM (inactive)	> 100 µM (inactive)	> 100 µM (inactive)	> 100 µM (inactive)	> 100 µM (inactive)		> 100 µM (inactive)	> 100 µM (inactive)
COC(=O)C1=C(c2ccc3c(c2)OCO3)O[C@H](c2cc(OC)c(OC)c(OC)c2)[C@H]1COC(C)=O	11.3 µM (inactive)	7.87 µM (inactive)	4.3 µM (inactive)	4.06 µM (inactive)	3.22 µM (inactive)	2.67 µM (inactive)	7.08 µM (inactive)	1.74 µM (inactive)	4.12 µM (inactive)	1.14 µM (inactive)	1.95 µM (inactive)	0.352 µM (active)	4.91 µM (inactive)	0.282 µM (active)	1.57 µM (inactive)	13.5 µM (inactive)			
Cc1cnoc1/N=C1\C=C(Nc2oncc2C)C(=O)c2ccccc21	> 100 µM (inactive)	> 100 µM (inactive)	> 100 µM (inactive)	> 100 µM (inactive)	25.5 µM (inactive)	> 100 µM (inactive)	> 100 µM (inactive)	> 100 µM (inactive)	> 100 µM (inactive)	> 100 µM (inactive)	> 100 µM (inactive)	> 100 µM (inactive)	> 100 µM (inactive)	> 100 µM (inactive)	> 100 µM (inactive)	> 100 µM (inactive)			
CC(=O)Nc1ccc2c(c1)C(=O)c1cccc(F)c1-2	38.8 µM (inactive)	38.6 µM (inactive)	35.4 µM (inactive)	56.2 µM (inactive)	50.2 µM (inactive)	65.5 µM (inactive)	49.2 µM (inactive)		71.6 µM (inactive)	> 100 µM (inactive)	41.1 µM (inactive)		36.6 µM (inactive)	54.2 µM (inactive)	23.6 µM (inactive)	55.6 µM (inactive)	36.5 µM (inactive)	> 100 µM (inactive)	0.113 µM (active)
CC(=O)C1CC=C(C)CC1 (centres undefined)	> 100 µM (inactive)	> 100 µM (inactive)	> 100 µM (inactive)	> 100 µM (inactive)	> 100 µM (inactive)	> 100 µM (inactive)	> 100 µM (inactive)	> 100 µM (inactive)	> 100 µM (inactive)	> 100 µM (inactive)	> 100 µM (inactive)	> 100 µM (inactive)	> 100 µM (inactive)	> 100 µM (inactive)	> 100 µM (inactive)	> 100 µM (inactive)	> 100 µM (inactive)		
CCC/C=C\C=C\C1(NS(=O)(=O)c2ccc(C)cc2)CCC(C(C)(C)C)CC1 (centres undefined)	7.96 µM (inactive)	9.1 µM (inactive)	14.6 µM (inactive)	23.4 µM (inactive)	12.5 µM (inactive)	22.9 µM (inactive)	15.4 µM (inactive)	16.9 µM (inactive)	10.2 µM (inactive)	26.7 µM (inactive)	19.6 µM (inactive)	21.2 µM (inactive)	18.2 µM (inactive)	19.9 µM (inactive)	13.7 µM (inactive)	24.9 µM (inactive)	3.2 µM (inactive)		
O=C(Nc1nc2ccc([N+](=O)[O-])cc2s1)C(=O)C(C(=O)c1ccncc1)C1OC(=O)c2ccccc21 (centres undefined)	> 100 µM (inactive)	> 100 µM (inactive)		33.9 µM (inactive)	> 100 µM (inactive)	> 100 µM (inactive)	> 100 µM (inactive)	> 100 µM (inactive)	> 100 µM (inactive)		> 100 µM (inactive)	48.6 µM (inactive)	> 100 µM (inactive)		> 100 µM (inactive)				
COc1cc([C@@H]2OC(=O)C3C2C(=O)O[C@H]3c2cc(OC)c(OC)c(OC)c2)cc(OC)c1OC (some centres undefined)	> 100 µM (inactive)	> 100 µM (inactive)	> 100 µM (inactive)	> 100 µM (inactive)	> 100 µM (inactive)	> 100 µM (inactive)	> 100 µM (inactive)	> 100 µM (inactive)	> 100 µM (inactive)	> 100 µM (inactive)		> 100 µM (inactive)	> 100 µM (inactive)	> 100 µM (inactive)	> 100 µM (inactive)	> 100 µM (inactive)	> 100 µM (inactive)		
